Key:
[1] = target: 5-hydroxytryptamine receptor 2B (Homo sapiens, UniProt P41595); format: functional, cell-based
[2] = target: T1, Alpha-1A adrenergic receptor (Homo sapiens, UniProt P35348); format: functional, cell-based
T1 sequence (P35348 whole entry): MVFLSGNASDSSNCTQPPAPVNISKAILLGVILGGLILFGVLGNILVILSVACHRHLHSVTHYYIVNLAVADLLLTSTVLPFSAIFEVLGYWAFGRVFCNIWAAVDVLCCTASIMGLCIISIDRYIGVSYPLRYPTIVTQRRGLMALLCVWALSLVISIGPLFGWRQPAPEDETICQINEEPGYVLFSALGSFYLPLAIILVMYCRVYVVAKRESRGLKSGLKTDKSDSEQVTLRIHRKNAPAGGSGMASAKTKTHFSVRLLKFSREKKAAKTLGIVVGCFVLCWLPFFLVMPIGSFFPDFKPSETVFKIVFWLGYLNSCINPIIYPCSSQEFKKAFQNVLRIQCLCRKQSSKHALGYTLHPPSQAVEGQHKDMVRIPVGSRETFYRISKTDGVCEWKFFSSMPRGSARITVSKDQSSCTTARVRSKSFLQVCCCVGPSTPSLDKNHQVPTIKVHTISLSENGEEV

[3] = target: Sodium-dependent serotonin transporter (Homo sapiens, UniProt P31645)
Chain of Sodium-dependent serotonin transporter (P31645 whole entry): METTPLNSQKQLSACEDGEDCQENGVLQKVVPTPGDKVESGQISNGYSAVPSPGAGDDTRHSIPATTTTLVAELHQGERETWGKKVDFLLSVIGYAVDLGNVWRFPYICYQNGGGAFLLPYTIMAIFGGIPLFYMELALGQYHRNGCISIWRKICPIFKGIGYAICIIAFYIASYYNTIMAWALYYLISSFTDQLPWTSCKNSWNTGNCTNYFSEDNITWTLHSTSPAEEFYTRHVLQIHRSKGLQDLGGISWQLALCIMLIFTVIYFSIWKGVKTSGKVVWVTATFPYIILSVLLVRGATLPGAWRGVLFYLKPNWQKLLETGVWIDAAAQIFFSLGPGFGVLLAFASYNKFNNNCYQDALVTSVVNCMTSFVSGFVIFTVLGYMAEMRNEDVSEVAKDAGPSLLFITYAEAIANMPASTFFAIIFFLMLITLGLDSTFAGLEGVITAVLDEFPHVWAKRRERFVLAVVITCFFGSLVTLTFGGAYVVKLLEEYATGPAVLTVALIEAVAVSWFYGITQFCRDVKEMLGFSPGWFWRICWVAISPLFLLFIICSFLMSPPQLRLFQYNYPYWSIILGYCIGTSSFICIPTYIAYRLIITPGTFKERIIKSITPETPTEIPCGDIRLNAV

[4] = target: T2, 5-hydroxytryptamine receptor 1A (Homo sapiens, UniProt P08908); format: functional, cell-based
T2 sequence (P08908 whole entry): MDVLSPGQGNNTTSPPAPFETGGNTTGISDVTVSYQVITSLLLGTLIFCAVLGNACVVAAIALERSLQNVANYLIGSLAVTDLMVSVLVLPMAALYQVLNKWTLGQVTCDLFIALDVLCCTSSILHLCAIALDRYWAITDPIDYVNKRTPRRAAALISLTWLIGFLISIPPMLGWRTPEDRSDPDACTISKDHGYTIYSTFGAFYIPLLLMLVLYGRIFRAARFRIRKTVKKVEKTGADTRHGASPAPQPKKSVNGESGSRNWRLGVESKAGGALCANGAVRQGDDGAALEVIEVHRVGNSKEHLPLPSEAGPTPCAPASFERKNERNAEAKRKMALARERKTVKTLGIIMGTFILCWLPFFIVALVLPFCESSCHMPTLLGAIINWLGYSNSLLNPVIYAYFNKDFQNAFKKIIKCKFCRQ

Progesterone receptor = target: T3, Progesterone receptor (Homo sapiens, UniProt P06401); format: functional
T3 sequence (P06401 whole entry): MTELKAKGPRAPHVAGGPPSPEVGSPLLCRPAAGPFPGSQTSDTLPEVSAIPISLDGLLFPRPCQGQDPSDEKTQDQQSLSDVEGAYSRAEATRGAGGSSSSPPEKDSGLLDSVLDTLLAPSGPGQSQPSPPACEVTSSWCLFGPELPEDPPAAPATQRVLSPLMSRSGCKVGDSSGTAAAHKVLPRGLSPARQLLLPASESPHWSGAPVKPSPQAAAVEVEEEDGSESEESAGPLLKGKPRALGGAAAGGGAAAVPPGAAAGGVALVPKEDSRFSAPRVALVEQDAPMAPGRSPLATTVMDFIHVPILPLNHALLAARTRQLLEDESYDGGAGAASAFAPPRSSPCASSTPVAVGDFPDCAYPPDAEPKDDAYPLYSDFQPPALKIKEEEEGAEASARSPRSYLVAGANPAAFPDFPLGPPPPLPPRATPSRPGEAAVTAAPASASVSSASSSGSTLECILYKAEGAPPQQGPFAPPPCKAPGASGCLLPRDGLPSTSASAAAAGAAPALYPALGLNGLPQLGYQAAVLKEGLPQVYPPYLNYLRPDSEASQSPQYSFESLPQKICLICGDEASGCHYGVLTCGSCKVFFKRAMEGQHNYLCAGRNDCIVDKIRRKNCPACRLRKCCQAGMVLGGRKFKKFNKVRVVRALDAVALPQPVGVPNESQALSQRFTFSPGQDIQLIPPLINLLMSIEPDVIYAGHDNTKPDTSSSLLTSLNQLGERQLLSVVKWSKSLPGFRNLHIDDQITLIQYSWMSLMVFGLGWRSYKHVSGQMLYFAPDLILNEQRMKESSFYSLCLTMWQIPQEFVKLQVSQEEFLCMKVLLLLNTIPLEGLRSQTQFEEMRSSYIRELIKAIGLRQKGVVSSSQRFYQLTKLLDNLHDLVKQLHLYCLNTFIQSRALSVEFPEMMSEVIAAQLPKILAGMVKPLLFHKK

[5] = target: Gamma-aminobutyric acid receptor subunit alpha-1 (Rattus norvegicus, UniProt P62813)
Chain of Gamma-aminobutyric acid receptor subunit alpha-1 (P62813 whole entry): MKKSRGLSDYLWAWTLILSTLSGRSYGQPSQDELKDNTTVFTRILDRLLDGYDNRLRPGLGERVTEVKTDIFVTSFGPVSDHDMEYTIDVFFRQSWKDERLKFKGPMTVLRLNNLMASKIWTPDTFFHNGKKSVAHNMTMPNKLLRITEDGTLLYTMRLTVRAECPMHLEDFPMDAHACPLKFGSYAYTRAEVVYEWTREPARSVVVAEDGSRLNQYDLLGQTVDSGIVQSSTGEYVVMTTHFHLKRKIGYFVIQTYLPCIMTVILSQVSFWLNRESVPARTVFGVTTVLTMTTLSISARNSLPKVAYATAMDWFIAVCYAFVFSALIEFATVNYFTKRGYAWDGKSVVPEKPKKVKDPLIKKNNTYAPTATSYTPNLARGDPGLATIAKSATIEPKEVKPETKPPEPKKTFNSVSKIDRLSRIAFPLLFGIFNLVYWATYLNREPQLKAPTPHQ

[6] = target: T4, Muscarinic acetylcholine receptor M1 (Homo sapiens, UniProt P11229); format: functional
T4 sequence (P11229 whole entry): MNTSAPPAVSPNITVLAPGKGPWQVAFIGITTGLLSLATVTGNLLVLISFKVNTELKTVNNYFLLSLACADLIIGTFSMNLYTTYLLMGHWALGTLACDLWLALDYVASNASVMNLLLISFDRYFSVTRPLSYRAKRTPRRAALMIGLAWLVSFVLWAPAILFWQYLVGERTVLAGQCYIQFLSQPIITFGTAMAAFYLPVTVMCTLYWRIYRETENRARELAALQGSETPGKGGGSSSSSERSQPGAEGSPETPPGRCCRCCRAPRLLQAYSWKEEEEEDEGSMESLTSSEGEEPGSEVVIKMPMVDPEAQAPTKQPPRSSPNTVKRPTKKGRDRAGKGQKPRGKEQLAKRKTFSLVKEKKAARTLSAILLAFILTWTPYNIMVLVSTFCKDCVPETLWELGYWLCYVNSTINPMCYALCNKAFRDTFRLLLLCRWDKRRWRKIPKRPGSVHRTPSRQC

[7] = target: T5, 5-hydroxytryptamine receptor 2C (Homo sapiens, UniProt P28335)
T5 sequence (P28335 whole entry): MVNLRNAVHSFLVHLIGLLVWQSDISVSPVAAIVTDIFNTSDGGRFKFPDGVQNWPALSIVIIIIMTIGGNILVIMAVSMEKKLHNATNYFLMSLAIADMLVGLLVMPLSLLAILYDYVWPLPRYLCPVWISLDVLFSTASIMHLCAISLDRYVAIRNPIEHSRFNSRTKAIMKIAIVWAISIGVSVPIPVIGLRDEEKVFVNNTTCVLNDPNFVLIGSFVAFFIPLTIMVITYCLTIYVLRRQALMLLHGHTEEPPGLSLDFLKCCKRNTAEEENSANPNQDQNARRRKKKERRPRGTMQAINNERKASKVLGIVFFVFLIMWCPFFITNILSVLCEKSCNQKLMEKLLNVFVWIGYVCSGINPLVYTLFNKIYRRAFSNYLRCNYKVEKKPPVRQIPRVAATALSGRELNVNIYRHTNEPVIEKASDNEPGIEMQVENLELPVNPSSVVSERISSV

Cannabinoid receptor 1 = Cannabinoid receptor 1 (Homo sapiens, UniProt P21554); format: functional, cell-based
Chain of Cannabinoid receptor 1 (P21554 whole entry): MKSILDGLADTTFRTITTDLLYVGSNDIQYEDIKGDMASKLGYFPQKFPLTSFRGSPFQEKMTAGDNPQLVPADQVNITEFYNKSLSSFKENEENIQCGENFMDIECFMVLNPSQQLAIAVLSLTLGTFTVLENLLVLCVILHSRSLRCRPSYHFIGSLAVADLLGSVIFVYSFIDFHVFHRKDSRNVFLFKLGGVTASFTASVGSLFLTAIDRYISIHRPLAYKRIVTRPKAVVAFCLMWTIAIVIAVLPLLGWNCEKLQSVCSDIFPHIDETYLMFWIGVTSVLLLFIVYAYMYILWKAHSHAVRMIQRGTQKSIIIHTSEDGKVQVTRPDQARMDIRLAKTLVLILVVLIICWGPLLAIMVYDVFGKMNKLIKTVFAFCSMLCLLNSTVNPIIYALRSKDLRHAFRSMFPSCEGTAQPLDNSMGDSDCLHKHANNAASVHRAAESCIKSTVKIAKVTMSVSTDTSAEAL
Further: assay procedure not described here.

Chain of 5-hydroxytryptamine receptor 2B (P41595 whole entry): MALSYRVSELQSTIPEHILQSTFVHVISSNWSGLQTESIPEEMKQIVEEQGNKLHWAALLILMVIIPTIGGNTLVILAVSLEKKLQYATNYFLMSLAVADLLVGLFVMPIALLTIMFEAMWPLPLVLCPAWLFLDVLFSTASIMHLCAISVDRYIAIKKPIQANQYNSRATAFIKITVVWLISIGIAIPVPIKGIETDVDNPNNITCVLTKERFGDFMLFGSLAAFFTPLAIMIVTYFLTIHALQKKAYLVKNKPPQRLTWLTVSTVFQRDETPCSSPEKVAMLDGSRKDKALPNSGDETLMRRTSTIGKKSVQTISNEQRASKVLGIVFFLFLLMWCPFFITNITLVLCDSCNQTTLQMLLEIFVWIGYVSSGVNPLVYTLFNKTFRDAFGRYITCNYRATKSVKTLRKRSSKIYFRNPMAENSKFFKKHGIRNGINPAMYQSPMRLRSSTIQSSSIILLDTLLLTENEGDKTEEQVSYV

AC50 [1] [µM] | AC50 [2] [µM] | AC50 [3] [µM] | AC50 [4] [µM] | AC50 (Progesterone receptor) [µM] | AC50 [5] [µM] | AC50 [6] [µM] | AC50 [7] [µM] | AC50 (Cannabinoid receptor 1) [µM] | SMILES
> 30 | > 30 | > 30 | > 30 | > 30 | > 30 | > 30 | > 30 | > 30 | CCCCC[C@H](O)/C=C/[C@H]1[C@H](O)CC(=O)[C@@H]1C/C=C\CCCC(=O)O [DINOPROSTONE]
> 30 | > 30 | > 30 | > 30 | > 30 | > 30 | > 30 | > 30 | > 30 | CCCN(CC)C(CC)C(=O)Nc1c(C)cccc1C (stereo not drawn) [ETIDOCAINE]
> 30 | > 30 | > 30 | > 30 | > 30 | > 30 | > 30 | 24 | > 30 | CCCCCCOC(=O)CCC(=O)CN [HEXAMINOLEVULINATE]
> 10 | > 30 | > 10 | > 10 | > 10 | > 30 | > 10 | > 30 | > 30 | CC(=O)Nc1c(I)c(C(=O)N[C@H]2C(O)O[C@H](CO)[C@@H](O)[C@@H]2O)c(I)c(N(C)C(C)=O)c1I (stereo partly drawn) [METRIZAMIDE]
> 30 | > 30 | > 30 | 13 | > 30 | > 30 | 22 | > 30 | > 30 | CCOC(=O)Nc1ccc2c(c1)N(C(=O)CCN1CCOCC1)c1ccccc1S2 [MORICIZINE]
4.7 | > 30 | 1.3 | > 30 | > 30 | > 30 | 7.9 | 11 | > 30 | CC(=O)c1ccc2c(c1)N(CCCN1CCC(CCO)CC1)c1ccccc1S2 [PIPERACETAZINE]
> 30 | > 30 | > 30 | > 30 | > 30 | 6.2 | > 30 | > 30 | > 30 | COc1c(O[C@@H]2O[C@H](CO)[C@@H](O)[C@H](O)[C@H]2O)cc2c(c1OC)-c1ccc(SC)c(=O)cc1[C@@H](NC(C)=O)CC2 [THIOCOLCHICOSIDE]

More lines, now with the values behind:

SMILES | AC50 [1] [µM] | AC50 [2] [µM] | AC50 [3] [µM] | AC50 [4] [µM] | AC50 (Progesterone receptor) [µM] | AC50 [5] [µM] | AC50 [6] [µM] | AC50 [7] [µM] | AC50 (Cannabinoid receptor 1) [µM]
CCC(C)(Oc1ccc(C2(c3ccc(OC(C)(CC)C(=O)O)cc3)CCCCC2)cc1)C(=O)O (stereo not drawn) [CLINOFIBRATE] | > 30 | > 30 | > 30 | > 30 | > 30 | > 30 | > 30 | > 30 | > 30
CC(C)c1cc2c(cc1S(=O)(=O)O)[C@@]1(C)CCC[C@@](C)(C(=O)O)[C@@H]1CC2 [ECABET] | > 30 | > 30 | > 30 | > 30 | > 30 | > 30 | > 30 | > 30 | > 30
C#C[C@]1(O)CC[C@H]2[C@@H]3CCC4=CC(=O)CCC4=C3C=C[C@@]21CC [GESTRINONE] | 24 | > 30 | 0.033 | > 30 | 0.1 | > 30 | > 30 | > 30 | > 30
Cc1ccc(NC(=O)C2(c3ccc4c(c3)OC(F)(F)O4)CC2)nc1-c1cccc(C(=O)O)c1 [LUMACAFTOR] | > 30 | > 30 | > 30 | > 30 | > 30 | > 30 | > 30 | > 30 | > 30
CC(C)OC(=O)C(C(=O)OC(C)C)=C1SC=CS1 [MALOTILATE] | > 30 | > 30 | > 30 | > 30 | > 30 | > 30 | > 30 | > 30 | > 30
CN(c1nccc(=O)[nH]1)C1CCN(c2nc3ccccc3n2Cc2ccc(F)cc2)CC1 [MIZOLASTINE] | 17 | > 30 | > 30 | > 30 | > 30 | > 30 | 0.011 | > 10 | > 30
Cc1ccc(=O)n(-c2ccccc2)c1 [PIRFENIDONE] | > 30 | > 30 | > 30 | > 30 | > 30 | > 30 | > 30 | > 30 | > 30
NC(=O)CCC/N=C(\c1ccc(Cl)cc1)c1cc(F)ccc1O [PROGABIDE] | > 10 | > 30 | > 10 | > 10 | > 10 | > 10 | > 10 | > 30 | > 30
CCN(CC)CC(=O)Oc1ccc(NC(C)=O)cc1 [PROPACETAMOL] | > 30 | > 30 | > 30 | > 30 | > 30 | > 30 | > 30 | > 30 | > 30
CCCOC(C(=O)OC1CCN(C)CC1)(c1ccccc1)c1ccccc1 [PROPIVERINE] | 16 | > 30 | > 30 | > 30 | > 30 | > 30 | 1.7 | 9.9 | > 30

Source: ChEMBL document CHEMBL5291721, “A preclinical secondary pharmacology resource illuminates target-adverse drug reaction associations of marketed drugs” (Nat Commun, 2023)
